Holding throughout (assay type): toxicity, cell-based
One data set has as its system U2OS. The data set can be described thus: Incucyte cell viability with U2OS. Particulars: human, 10 µM, compound concentration 10 uM.
A further data set relates to HEK-293T. As to the kind of experiment: Incucyte cell viability with HEK293T. Particulars: human, 10 µM, compound concentration 10 uM.
A further data set concerns Fibroblast. The data set can be described thus: Incucyte cell viability with human fibroblast. The conditions noted are these: 10 µM, compound concentration 10 uM.
Setting [1] is: 0 h, replicate number 1, timepoint 0 hours.
Setting [2] is: 0 h, replicate number 2, timepoint 0 hours.
[3] abbreviates: 6 h, replicate number 1, timepoint 6 hours.
Setting [4] is: 6 h, replicate number 2, timepoint 6 hours.
[5] abbreviates: 12 h, replicate number 1, timepoint 12 hours.
Setting [6] is: 12 h, replicate number 2, timepoint 12 hours.
Where [7] appears, read: 18 h, replicate number 1, timepoint 18 hours.
Setting [8] is: 18 h, replicate number 2, timepoint 18 hours.
The mark [9] stands for this setting: 24 h, replicate number 2, timepoint 24 hours.
Where [10] appears, read: 24 h, replicate number 1, timepoint 24 hours.

Experimental findings from ChEMBL document CHEMBL5058564, “EUbOPEN Chemogenomics Library 2 (Incucyte)” (2022) are described below.
Note: unitless GR value; below 1 slowed growth and below 0 cell loss.

On to `CCc1cc2c(cc1-c1cccc(S(=O)(=O)F)c1)C(C)(C)c1[nH]c3cc(C#N)ccc3c1C2=O`, for which the “Growth Rate” value is listed as 0.95 with U2OS (setting [1]); -1 in the data set on U2OS (setting [2]); -0.03 with U2OS (setting [3]); 0.92 in the data set with U2OS (setting [4]); 0.61 with U2OS (setting [5]); 0.81 in the data set with U2OS (setting [6]). For the same molecule, the “Growth Rate” value with U2OS (setting [7]) is listed as 0.58; in the data set with U2OS (setting [8]) it was 0.78; in the data set on U2OS (setting [9]), 0.78; in the data set on HEK-293T (setting [1]), 0.26; in the data set on HEK-293T (setting [2]), 0.5; in the data set on HEK-293T (setting [3]), 0.46. The “Growth Rate” value is on record as 0.37 in the data set with HEK-293T (setting [4]); 0.99 in the data set on HEK-293T (setting [5]); 0.6 with HEK-293T (setting [6]); 0.78 in the data set on HEK-293T (setting [7]); 0.62 with HEK-293T (setting [8]); 1 in the data set with HEK-293T (setting [10]). The “Growth Rate” value is recorded as 0.22 in the data set on Fibroblast (setting [2]); 0.03 in the data set with Fibroblast (setting [3]); 0.66 with Fibroblast (setting [4]); -0.15 with Fibroblast (setting [5]); 0.17 in the data set on Fibroblast (setting [6]); -0.21 with Fibroblast (setting [7]). The results for the “Growth Rate” value in the data set with Fibroblast (setting [8]), with Fibroblast (setting [10]) and in the data set on Fibroblast (setting [9]) were 0.47, -0.18 and 0.58, respectively.

`NC(=O)c1ccc(CNC(=O)NC[C@H]2CN(Cc3ccc(Cl)c(Cl)c3)CCO2)cc1`: the “Growth Rate” value is reported as 0.11 in the data set on U2OS (setting [2]); 0.32 with U2OS (setting [3]); 0.8 in the data set on U2OS (setting [5]); 0.91 in the data set with U2OS (setting [7]); 0.54 in the data set on HEK-293T (setting [2]); 0.47 with HEK-293T (setting [3]). Further, the “Growth Rate” value with HEK-293T (setting [5]) was found to be 0.86; in the data set with HEK-293T (setting [7]) it was 0.88; with HEK-293T (setting [8]) it was 1; in the data set on HEK-293T (setting [10]), 0.88; with HEK-293T (setting [9]), 0.8; with Fibroblast (setting [1]), 0.21.

Take `CN(C)CCn1cc(S(=O)(=O)c2cccc(F)c2)c2cccnc21.Cl.Cl`: the “Growth Rate” value is reported as 0.56 in the data set on U2OS (setting [3]); 0.76 with U2OS (setting [4]); 0.39 in the data set with U2OS (setting [5]); 0.98 in the data set with U2OS (setting [6]); 0.8 with U2OS (setting [7]); 0.86 in the data set on U2OS (setting [10]). Also, the “Growth Rate” value in the data set with HEK-293T (setting [1]) is listed as 0.41; with HEK-293T (setting [2]), 0.35; in the data set on HEK-293T (setting [4]) it was 0.9; with Fibroblast (setting [1]) it was -0.06; in the data set on Fibroblast (setting [2]), 0.07; in the data set with Fibroblast (setting [3]), -0.17. In addition, the “Growth Rate” value was 0.86 with Fibroblast (setting [4]); 0.56 in the data set on Fibroblast (setting [5]); 0.68 with Fibroblast (setting [6]); 0.65 with Fibroblast (setting [7]); 0.64 in the data set with Fibroblast (setting [8]); 0.75 with Fibroblast (setting [10]). In the data set with Fibroblast (setting [9]), the “Growth Rate” value turned out to be 0.57.

For the molecule `CN[C@@H]1Cc2cccc3[nH]c(=O)n(c23)C1.O=C(O)/C=C\C(=O)O`, the “Growth Rate” value was 0.11 with U2OS (setting [1]); -1 in the data set with U2OS (setting [2]); 0.71 in the data set on U2OS (setting [7]); 0.85 with U2OS (setting [8]); 0.89 in the data set with U2OS (setting [10]); 0.98 in the data set on U2OS (setting [9]). For the same molecule, the “Growth Rate” value with HEK-293T (setting [3]) is given as 0.74; in the data set with HEK-293T (setting [4]) it was 0.88; in the data set on HEK-293T (setting [7]) it was 0.9; with HEK-293T (setting [8]), 0.98; in the data set with HEK-293T (setting [10]), 0.79; in the data set on Fibroblast (setting [3]), -0.17. In addition, the “Growth Rate” value in the data set on Fibroblast (setting [4]) is recorded as 0.8; with Fibroblast (setting [5]), 0.68; with Fibroblast (setting [7]) it was 0.81; in the data set on Fibroblast (setting [10]) it was 0.5.

Turning to `CCNC(=O)[C@H]1O[C@@H](n2cnc3c(N)ncnc32)[C@H](O)[C@@H]1O.O`, the “Growth Rate” value is given as -0.43 in the data set on U2OS (setting [1]); 0.86 in the data set with U2OS (setting [3]); 0.61 in the data set on U2OS (setting [5]); 0.71 in the data set on U2OS (setting [7]); 0.74 with U2OS (setting [10]); -0.1 in the data set on HEK-293T (setting [1]). In addition, the “Growth Rate” value with HEK-293T (setting [2]) is -0.27; in the data set with HEK-293T (setting [3]), 0.74; in the data set with HEK-293T (setting [5]), 0.85; in the data set with HEK-293T (setting [7]), 0.8; in the data set on HEK-293T (setting [10]), 0.76; in the data set on HEK-293T (setting [9]), 0.81. For the same molecule, the “Growth Rate” value is -0.1 in the data set on Fibroblast (setting [1]), 0.3 in the data set with Fibroblast (setting [2]), 0.46 with Fibroblast (setting [4]) and 0.87 with Fibroblast (setting [6]).

Turning to `COc1cc(C(=O)N2CC[C@@H](O)[C@@H](N)C2)cc2nc(-c3cc4ccccc4n3CC3CC3)n(C)c12.Cl`, the “Growth Rate” value in the data set with U2OS (setting [1]) was -0.04; in the data set with U2OS (setting [2]), 0.15; in the data set with U2OS (setting [3]), 0.61; in the data set with U2OS (setting [6]), 0.98; in the data set on U2OS (setting [8]) it was 0.99; in the data set with HEK-293T (setting [3]), 0.71. In addition, the “Growth Rate” value in the data set on HEK-293T (setting [5]) is reported as 0.85; in the data set with HEK-293T (setting [7]), 0.88; in the data set on HEK-293T (setting [10]), 0.77; with Fibroblast (setting [3]), -0.98; with Fibroblast (setting [4]), -0.57; with Fibroblast (setting [5]), -0.8. Also, the “Growth Rate” value in the data set on Fibroblast (setting [6]) is -0.18; with Fibroblast (setting [7]) it was -0.63; with Fibroblast (setting [8]), -0.01; in the data set with Fibroblast (setting [10]), -0.52; in the data set with Fibroblast (setting [9]), 0.15.

As to `CCCN(CCC)[C@@H]1CCc2ccc3[nH]c(C#N)cc3c2C1.Cl`, the “Growth Rate” value in the data set on U2OS (setting [1]) is 0.61; in the data set on U2OS (setting [2]), 0.9; in the data set on U2OS (setting [3]) it was 0.8; with U2OS (setting [7]), 0.73; with U2OS (setting [10]), 0.95; in the data set with HEK-293T (setting [1]), 0.55. Besides, the “Growth Rate” value in the data set on HEK-293T (setting [2]) is 0.54; with HEK-293T (setting [3]), 0.81; with HEK-293T (setting [5]), 0.81; with HEK-293T (setting [10]) it was 1; in the data set with HEK-293T (setting [9]) it was 0.95; with Fibroblast (setting [2]), -0.06. Also, the “Growth Rate” value in the data set with Fibroblast (setting [3]) turned out to be 0.01; in the data set on Fibroblast (setting [7]), 0.97; in the data set on Fibroblast (setting [10]), 0.95.

As for `COc1ccc(C(=O)N2CCN(C(=O)/C=C/c3ccc(Br)cc3)CC2)cc1`, the “Growth Rate” value with U2OS (setting [3]) is recorded as -0.38; with U2OS (setting [4]) it was 0.66; with U2OS (setting [5]), 0.8; with U2OS (setting [6]) it was 0.72; in the data set on U2OS (setting [7]), 0.64; with U2OS (setting [8]), 0.63. For the same molecule, the “Growth Rate” value is on record as 0.88 with U2OS (setting [10]); 0.73 in the data set with U2OS (setting [9]); 0.09 in the data set on HEK-293T (setting [3]); 0.76 in the data set with Fibroblast (setting [2]); -0.51 in the data set on Fibroblast (setting [3]); 0.15 in the data set on Fibroblast (setting [5]). In addition, the “Growth Rate” value came to 0.95 in the data set on Fibroblast (setting [6]), 0.44 in the data set with Fibroblast (setting [7]), 0.79 in the data set with Fibroblast (setting [8]) and 0.08 in the data set with Fibroblast (setting [10]).
